This is an account of results in PMC7785057 (ACS catalysis, 2020).

A word on the Km: it is the substrate concentration at which the rate is half of its maximum.

The test has as its target NmSiaDW (Neisseria meningitidis, UniProt O33390). The test is described as follows: sialyltransferase kinetics, varied acceptor. Format: biochemical. As to conditions: α2–6-sialyltransferase activity, fixed concentration of CMP-Neu5Ac.

With `CC(=O)N[C@H]1[C@H]([C@H](O)[C@H](O)CO)O[C@@](OC[C@H]2O[C@H](O[C@H]3C[C@](OCCCNC(=O)OCc4ccccc4)(C(=O)O)O[C@@H]([C@H](O)[C@H](O)CO)[C@@H]3NC(C)=O)[C@H](O)[C@@H](O)[C@H]2O)(C(=O)O)C[C@@H]1O[C@H]1O[C@H](CO)[C@H](O)[C@H](O)[C@H]1O` [G4], the Km stood at 240 ± 40 µM.
